Publication PMC5218480 (PLoS ONE, 2017)

Test system: MV-4-11 cells
Assay: Gene expression microarray analysis (Affymetrix PrimeView) and GSEA
Assay type: cell-based, human
Set-up: RFU PODN (11730768_x_at) / Fold change /veh PODN (11730768_x_at) / RFU LINC00158 (11744669_a_at) / Fold change /veh LINC00158 (11744669_a_at) / RFU DUSP10 (11751237_a_at) / Fold change /veh DUSP10 (11751237_a_at) / RFU ID3 (11757404_x_at) / Fold change /veh ID3 (11757404_x_at) / RFU PLEKHG5 (11737974_s_at) / Fold change /veh PLEKHG5 (11737974_s_at) / RFU LRRC4B (11730491_at) / Fold change /veh LRRC4B (11730491_at) / RFU GIMAP4 (11747438_a_at) / Fold change /veh GIMAP4 (11747438_a_at) / RFU KRT8 (11758183_x_at) / Fold change /veh KRT8 (11758183_x_at) / RFU CNN1 (11734310_a_at) / Fold change /veh CNN1 (11734310_a_at) / RFU VPS37D (11726825_at) / Fold change /veh VPS37D (11726825_at) / RFU C10orf10 (11716522_x_at) / Fold change /veh C10orf10 (11716522_x_at) / RFU KIR2DL2 /// KIR2DL4 /// KIR2DL5A /// KIR2DL5B /// KIR2DS1 /// KIR2DS2 /// KIR2DS3 /// KIR2DS4 /// KIR3DL3 /// KIR3DL3 /// KIR3DS1 (11738374_at) / Fold change /veh KIR2DL2 /// KIR2DL4 /// KIR2DL5A /// KIR2DL5B /// KIR2DS1 /// KIR2DS2 /// KIR2DS3 /// KIR2DS4 /// KIR3DL3 /// KIR3DL3 /// KIR3DS1 (11738374_at) / RFU C1QL1 (11718748_at) / Fold change /veh C1QL1 (11718748_at) / RFU TMPRSS4 (11747572_a_at) / Fold change /veh TMPRSS4 (11747572_a_at) / RFU HAMP (11756126_x_at) / Fold change /veh HAMP (11756126_x_at) / RFU RNFT2 (11725882_a_at) / Fold change /veh RNFT2 (11725882_a_at) / RFU NR4A2 (11747474_a_at) / Fold change /veh NR4A2 (11747474_a_at) / RFU ABCC12 (11746883_a_at) / Fold change /veh ABCC12 (11746883_a_at) / RFU TMEM136 (11760407_x_at) / Fold change /veh TMEM136 (11760407_x_at) / RFU CLDN22 /// WWC2 (11732394_at) / Fold change /veh CLDN22 /// WWC2 (11732394_at) / RFU HLA-DPB1 (11760878_x_at) / Fold change /veh HLA-DPB1 (11760878_x_at) / RFU SPINT1 (11716480_a_at) / Fold change /veh SPINT1 (11716480_a_at) / RFU GAP43 (11754022_s_at) / Fold change /veh GAP43 (11754022_s_at) / RFU A4GNT (11735810_at) / Fold change /veh A4GNT (11735810_at) / RFU PRB3 (11715151_x_at) / Fold change /veh PRB3 (11715151_x_at) / RFU TUBB4B (11761932_at) / Fold change /veh TUBB4B (11761932_at) / RFU CAPN14 (11732068_a_at) / Fold change /veh CAPN14 (11732068_a_at) / RFU TMCC2 (11721928_a_at) / Fold change /veh TMCC2 (11721928_a_at) / RFU IRGQ (11745062_a_at) / Fold change /veh IRGQ (11745062_a_at) / RFU FAM174B (11720279_a_at) / Fold change /veh FAM174B (11720279_a_at) / RFU TMPRSS4 (11748680_a_at) / Fold change /veh TMPRSS4 (11748680_a_at) / RFU FAM212B (11763350_a_at) / Fold change /veh FAM212B (11763350_a_at) / RFU PLEKHG5 (11743358_a_at) / Fold change /veh PLEKHG5 (11743358_a_at) / RFU ZSCAN30 (11745921_a_at) / Fold change /veh ZSCAN30 (11745921_a_at) / RFU CMKLR1 (11741424_a_at) / Fold change /veh CMKLR1 (11741424_a_at) / RFU LOC101060620 /// MAPK8IP1 (11723275_at) / Fold change /veh LOC101060620 /// MAPK8IP1 (11723275_at) / RFU SPTSSB (11747773_x_at) / Fold change /veh SPTSSB (11747773_x_at) / RFU PRSS12 (11739890_at) / Fold change /veh PRSS12 (11739890_at) / RFU BIN1 (11741810_x_at) / Fold change /veh BIN1 (11741810_x_at) / RFU WNT11 (11732464_a_at) / Fold change /veh WNT11 (11732464_a_at) / RFU C10orf10 (11716521_a_at) / Fold change /veh C10orf10 (11716521_a_at) / RFU C5orf56 (11738089_at) / Fold change /veh C5orf56 (11738089_at) / RFU CYB561 (11721691_x_at) / Fold change /veh CYB561 (11721691_x_at) / RFU ANKRD19P (11752326_a_at) / Fold change /veh ANKRD19P (11752326_a_at) / RFU OR2T12 /// OR2T33 /// OR2T8 (11738714_s_at) / Fold change /veh OR2T12 /// OR2T33 /// OR2T8 (11738714_s_at) / RFU VCAN (11748164_a_at) / Fold change /veh VCAN (11748164_a_at) / RFU JSRP1 (11732532_at) / Fold change /veh JSRP1 (11732532_at) / RFU KRTAP10-11 (11738290_x_at) / Fold change /veh KRTAP10-11 (11738290_x_at) / RFU MYO3A (11730013_a_at) / Fold change /veh MYO3A (11730013_a_at) / RFU EBF3 (11725865_a_at) / Fold change /veh EBF3 (11725865_a_at) / RFU CAMK2N1 (11719241_x_at) / Fold change /veh CAMK2N1 (11719241_x_at) / RFU C5orf56 (11738088_a_at) / Fold change /veh C5orf56 (11738088_a_at) / RFU OLFML3 (11715873_a_at) / Fold change /veh OLFML3 (11715873_a_at) / RFU LOC100653217 /// NTM (11731650_a_at) / Fold change /veh LOC100653217 /// NTM (11731650_a_at) / RFU MAPK11 (11762145_a_at) / Fold change /veh MAPK11 (11762145_a_at) / RFU FIZ1 (11724087_x_at) / Fold change /veh FIZ1 (11724087_x_at) / RFU OASL (11726364_x_at) / Fold change /veh OASL (11726364_x_at) / RFU SOX15 (11748057_x_at) / Fold change /veh SOX15 (11748057_x_at) / RFU CD79A (11719716_a_at) / Fold change /veh CD79A (11719716_a_at) / RFU HIST1H1D (11736915_at) / Fold change /veh HIST1H1D (11736915_at) / RFU CASKIN2 (11723855_a_at) / Fold change /veh CASKIN2 (11723855_a_at) / RFU LOC730098 (11760151_x_at) / Fold change /veh LOC730098 (11760151_x_at) / RFU OR4N2 (11742367_at) / Fold change /veh OR4N2 (11742367_at) / RFU PRRT2 (11749266_a_at) / Fold change /veh PRRT2 (11749266_a_at) / RFU SNX32 (11753110_a_at) / Fold change /veh SNX32 (11753110_a_at) / RFU CDHR5 (11726645_a_at) / Fold change /veh CDHR5 (11726645_a_at) / RFU RCAN1 (11760418_a_at) / Fold change /veh RCAN1 (11760418_a_at) / RFU FAM167A (11723789_a_at) / Fold change /veh FAM167A (11723789_a_at) / RFU FAM26E (11764081_at) / Fold change /veh FAM26E (11764081_at) / RFU ISYNA1 (11749810_s_at) / Fold change /veh ISYNA1 (11749810_s_at) / RFU ACY1 (11761880_at) / Fold change /veh ACY1 (11761880_at) / RFU 11764098_at / Fold change /veh 11764098_at / RFU SAMD14 (11745864_x_at) / Fold change /veh SAMD14 (11745864_x_at) / RFU NPB (11741838_a_at) / Fold change /veh NPB (11741838_a_at) / RFU TMPRSS6 (11731388_a_at) / Fold change /veh TMPRSS6 (11731388_a_at) / RFU KRTAP10-2 (11738614_at) / Fold change /veh KRTAP10-2 (11738614_at) / RFU ARHGAP8 /// PRR5-ARHGAP8 (11727945_x_at) / Fold change /veh ARHGAP8 /// PRR5-ARHGAP8 (11727945_x_at) / RFU KRTAP5-7 /// NADSYN1 (11734609_at) / Fold change /veh KRTAP5-7 /// NADSYN1 (11734609_at) / RFU RASL12 (11751679_a_at) / Fold change /veh RASL12 (11751679_a_at) / RFU CDKN2B (11736163_a_at) / Fold change /veh CDKN2B (11736163_a_at) / RFU PRF1 (11729649_at) / Fold change /veh PRF1 (11729649_at) / RFU, ZNF638 /// ZNF638-IT1 / Fold change vs veh, ZNF638 /// ZNF638-IT1 / RFU, PANK3 / Fold change vs veh, PANK3 / RFU, SH3YL1 / Fold change vs veh, SH3YL1 / RFU, ZEB2 / Fold change vs veh, ZEB2 / RFU, NRIP1 / Fold change vs veh, NRIP1 / RFU, PTTG1IP / Fold change vs veh, PTTG1IP / RFU, CAPN2 / Fold change vs veh, CAPN2 / RFU, MED14 / Fold change vs veh, MED14 / RFU, SNORA58 / Fold change vs veh, SNORA58 / RFU, C1orf63 / Fold change vs veh, C1orf63 / RFU, LRRFIP1 / Fold change vs veh, LRRFIP1 / RFU, NDUFAF7 / Fold change vs veh, NDUFAF7 / RFU, SLC12A2 / Fold change vs veh, SLC12A2 / RFU, IBTK / Fold change vs veh, IBTK / RFU, ESF1 / Fold change vs veh, ESF1 / Fold change vs veh, TMEM50B / RFU, TAOK1 / Fold change vs veh, TAOK1 / RFU, ACBD3 / Fold change vs veh, ACBD3 / RFU, TMA16 / Fold change vs veh, TMA16 / RFU, RWDD3 / Fold change vs veh, RWDD3 / RFU, BCAT1 / Fold change vs veh, BCAT1 / RFU, EDEM3 / Fold change vs veh, EDEM3 / RFU, TMEM33 / Fold change vs veh, TMEM33 / RFU, WDR75 / Fold change vs veh, WDR75 / RFU, AHCTF1 / Fold change vs veh, AHCTF1 / RFU, TFRC / Fold change vs veh, TFRC / RFU, ZDHHC17 / Fold change vs veh, ZDHHC17 / RFU, NOM1 / Fold change vs veh, NOM1 / RFU, ARL8B / Fold change vs veh, ARL8B / RFU, ZBTB11 / Fold change vs veh, ZBTB11 / RFU, TAMM41 / Fold change vs veh, TAMM41 / RFU, KIAA1704 /// LOC100996395 / Fold change vs veh, KIAA1704 /// LOC100996395 / RFU, ING1 / Fold change vs veh, ING1 / RFU, TRMT61B / Fold change vs veh, TRMT61B / RFU, FUBP3 / Fold change vs veh, FUBP3 / RFU, TP53 / Fold change vs veh, TP53 / RFU, TNKS2 / Fold change vs veh, TNKS2 / RFU, ZFP14 / Fold change vs veh, ZFP14 / RFU, ACTR2 / Fold change vs veh, ACTR2 / RFU, PPP3R1 / Fold change vs veh, PPP3R1 / RFU, PIK3R1 / Fold change vs veh, PIK3R1 / RFU, HNRNPA1 / Fold change vs veh, HNRNPA1 / RFU, RNF170 / Fold change vs veh, RNF170 / RFU, ZNF28 / Fold change vs veh, ZNF28 / RFU, RNGTT / Fold change vs veh, RNGTT / RFU, OGT / Fold change vs veh, OGT / RFU, BRD1 / Fold change vs veh, BRD1 / RFU, MARS / Fold change vs veh, MARS / RFU, ZNF655 / Fold change vs veh, ZNF655 / RFU, FAHD1 / Fold change vs veh, FAHD1 / RFU, BDP1 / Fold change vs veh, BDP1 / RFU, LRRCC1 / Fold change vs veh, LRRCC1 / RFU, ARID1A / Fold change vs veh, ARID1A / RFU, ZNF146 / Fold change vs veh, ZNF146 / RFU, ZNF330 / Fold change vs veh, ZNF330 / RFU, GPN3 / Fold change vs veh, GPN3 / RFU, C9orf123 / Fold change vs veh, C9orf123 / RFU, N4BP2L2 / Fold change vs veh, N4BP2L2 / RFU, ARFIP1 / Fold change vs veh, ARFIP1 / RFU, FAM179B / Fold change vs veh, FAM179B / RFU, BCL10 / Fold change vs veh, BCL10 / RFU, UHRF1BP1L / Fold change vs veh, UHRF1BP1L / RFU, BET1 / Fold change vs veh, BET1 / RFU, CNOT2 / Fold change vs veh, CNOT2 / RFU, ZNF268 / Fold change vs veh, ZNF268 / Fold change vs veh, ZNF507 / RFU, DGCR2 / Fold change vs veh, DGCR2 / RFU, WDSUB1 / Fold change vs veh, WDSUB1 / Fold change vs veh, HSP90B1 /// MIR3652 / RFU, ADSS / Fold change vs veh, ADSS / RFU, GK / Fold change vs veh, GK / RFU, ZNF148 / Fold change vs veh, ZNF148 / RFU, TAF9 / Fold change vs veh, TAF9 / RFU, SLC1A5 / Fold change vs veh, SLC1A5 / RFU, SLMO2 / Fold change vs veh, SLMO2 / RFU, ABCC4 / Fold change vs veh, ABCC4 / RFU, LOC101060439 /// RAP1B / Fold change vs veh, LOC101060439 /// RAP1B / RFU, RFX7 / Fold change vs veh, RFX7 / RFU, GTPBP10 / Fold change vs veh, GTPBP10 / RFU, CNEP1R1 / Fold change vs veh, CNEP1R1 / RFU, BIVM-ERCC5 /// ERCC5 / Fold change vs veh, BIVM-ERCC5 /// ERCC5 / RFU, ILF3 / Fold change vs veh, ILF3 / RFU 11762660_at / Fold change /veh 11762660_at / RFU VCAN (11757783_s_at) / Fold change /veh VCAN (11757783_s_at) / RFU DDX43 (11728927_at) / Fold change /veh DDX43 (11728927_at) / RFU KRT8 (11758188_x_at) / Fold change /veh KRT8 (11758188_x_at) / RFU NKD1 (11759106_at) / Fold change /veh NKD1 (11759106_at) / RFU SRD5A1 (11742802_a_at) / Fold change /veh SRD5A1 (11742802_a_at) / RFU TPSAB1 /// TPSB2 (11721975_s_at) / Fold change /veh TPSAB1 /// TPSB2 (11721975_s_at) / RFU GSTM3 (11746129_a_at) / Fold change /veh GSTM3 (11746129_a_at) / RFU IL23R (11737362_x_at) / Fold change /veh IL23R (11737362_x_at) / RFU TMEM51 (11727254_a_at) / Fold change /veh TMEM51 (11727254_a_at) / RFU PIWIL2 (11732686_x_at) / Fold change /veh PIWIL2 (11732686_x_at) / RFU ORM1 (11744905_x_at) / Fold change /veh ORM1 (11744905_x_at) / RFU CCDC152 (11743942_at) / Fold change /veh CCDC152 (11743942_at) / RFU ECM1 (11717891_a_at) / Fold change /veh ECM1 (11717891_a_at) / RFU IL23R (11748794_a_at) / Fold change /veh IL23R (11748794_a_at) / RFU TNFAIP8L3 (11732012_x_at) / Fold change /veh TNFAIP8L3 (11732012_x_at) / RFU MBOAT4 (11741988_at) / Fold change /veh MBOAT4 (11741988_at) / RFU 11764193_at / Fold change /veh 11764193_at / RFU TMEM53 (11763286_at) / Fold change /veh TMEM53 (11763286_at) / RFU MAGEB2 (11727129_at) / Fold change /veh MAGEB2 (11727129_at) / RFU TMEM200A (11744735_a_at) / Fold change /veh TMEM200A (11744735_a_at) / RFU CCDC152 (11751479_a_at) / Fold change /veh CCDC152 (11751479_a_at) / RFU FAM211A (11726209_a_at) / Fold change /veh FAM211A (11726209_a_at) / RFU RGS16 (11746705_a_at) / Fold change /veh RGS16 (11746705_a_at) / RFU VCAN (11755009_s_at) / Fold change /veh VCAN (11755009_s_at) / RFU RHOB (11743442_s_at) / Fold change /veh RHOB (11743442_s_at) / RFU RGS16 (11720943_a_at) / Fold change /veh RGS16 (11720943_a_at) / RFU RGS16 (11720944_at) / Fold change /veh RGS16 (11720944_at) / RFU, VPS4B / Fold change vs veh, VPS4B / RFU, CREB1 / Fold change vs veh, CREB1 / RFU, DNAJC13 / Fold change vs veh, DNAJC13 / RFU, GNAQ / Fold change vs veh, GNAQ / RFU, CDK5R1 / Fold change vs veh, CDK5R1 / RFU, ZRANB3 / Fold change vs veh, ZRANB3 / RFU, CUL4A / Fold change vs veh, CUL4A / RFU, CCNY / Fold change vs veh, CCNY / RFU, UFL1 / Fold change vs veh, UFL1 / RFU, COG3 / Fold change vs veh, COG3 / RFU, DIAPH2 / Fold change vs veh, DIAPH2 / RFU, SKA2 / Fold change vs veh, SKA2 / RFU, AFF3 / Fold change vs veh, AFF3 / RFU, LMF1 / Fold change vs veh, LMF1 / RFU, IPO11 / Fold change vs veh, IPO11 / RFU, DFFB / Fold change vs veh, DFFB / RFU, FOXP1 / Fold change vs veh, FOXP1 / RFU, CARD8 / Fold change vs veh, CARD8 / RFU, STRN3 / Fold change vs veh, STRN3 / RFU, ADK / Fold change vs veh, ADK / RFU, RASSF2 / Fold change vs veh, RASSF2 / RFU, WIPF1 / Fold change vs veh, WIPF1 / RFU, LARP1B / Fold change vs veh, LARP1B / RFU, RASA1 / Fold change vs veh, RASA1 / RFU, RB1 / Fold change vs veh, RB1 / RFU, PPFIA1 / Fold change vs veh, PPFIA1 / RFU, MAT2A / Fold change vs veh, MAT2A / RFU, CCT5 / Fold change vs veh, CCT5 / RFU, WDR92 / Fold change vs veh, WDR92 / RFU, CUX1 / Fold change vs veh, CUX1 / RFU, TTC7A / Fold change vs veh, TTC7A / RFU, TMEM135 / Fold change vs veh, TMEM135 / RFU, DEPTOR / Fold change vs veh, DEPTOR / RFU, CPM / Fold change vs veh, CPM / RFU, DNAJB6 / Fold change vs veh, DNAJB6 / RFU, CACNA2D3 / Fold change vs veh, CACNA2D3 / RFU, DTX4 / Fold change vs veh, DTX4 / RFU, TFCP2 / Fold change vs veh, TFCP2 / RFU, GMCL1 /// GMCL1P1 / Fold change vs veh, GMCL1 /// GMCL1P1 / RFU, AEBP2 / Fold change vs veh, AEBP2 / RFU, SNHG1 /// SNORD22 /// SNORD25 /// SNORD26 /// SNORD27 /// SNORD28 /// SNORD29 /// SNORD31 / Fold change vs veh, SNHG1 /// SNORD22 /// SNORD25 /// SNORD26 /// SNORD27 /// SNORD28 /// SNORD29 /// SNORD31 / Fold change (Aza/veh), C12orf56 (ProbeSet 11735607_a_at) / Fold change (ACY-1035/veh), C12orf56 (ProbeSet 11735607_a_at) / Fold change (Aza/veh), FGFR1OP (ProbeSet 11751329_s_at) / Fold change (ACY-1035/veh), FGFR1OP (ProbeSet 11751329_s_at) / Fold change (Aza/veh), VPS36 (ProbeSet 11739960_a_at) / Fold change (ACY-1035/veh), VPS36 (ProbeSet 11739960_a_at) / RFU SYPL1 (11715823_x_at) / Fold change /veh SYPL1 (11715823_x_at) / RFU IGFBP7 (11715501_s_at) / Fold change /veh IGFBP7 (11715501_s_at) / RFU REEP3 (11722064_at) / Fold change /veh REEP3 (11722064_at) / RFU IGLL1 (11728026_x_at) / Fold change /veh IGLL1 (11728026_x_at): dose or concentration left out as unconfirmed
Details: MV-4-11 cells, 48 hours

Nc1ccc(-c2cccs2)cc1NC(=O)c1ccc2c(c1)cc(C1CC1)n2CCN1CCOCC1 [ACY-1035]
Fold change /veh 11762660_at: 0.98
